Reference: patent EP0366451A2, “The use of oxidized polyamines, especially NN'-Bis-(3-propionaldehyde)-1-4-diaminobutane (sperminedialdehyde) as immunosuppressive agents” (ORTHO PHARMACEUTICAL CORPORATION, priority 1988, dated 1990)

Tests used:
L1210/CPA cells = assay: L1210/CPA cell proliferation ([3H]-thymidine incorporation); type: cell-based, Murine
Protocol: Murine lymphocytic leukemia cell lines, L1210/CPA and L1210/0 (als. known as Le/CPA and Le/0) were kindly provided by Dr. F. Struck, Southern Research Institute, Birmingham, AL. Cells were grown in RPMI-1640, supplemented with 10% horse serum, 100 units/ml penicillin and 100 µg/ml streptomycin. The cultures were incubated at 37°C in a humidified atmosphere with 5% CO₂ in air. Bone marrow cells were flushed from femurs of mice with RPMI-1640, using a tuberculin syringe fitted with a 25 gauge meedle. For spleen cells, spleens were removed and passed through a fine wire mesh to get a single homogenous cell suspension. In either case, cells were centrifuged, washed twice and resuspended in the drug exposure medium (see below). Cell viability was determined by trypan blue exclusion and the cell suspension was diluted to the desired concentration.
Murine leukemic cells and bone marrow/spleen cells were treated with SDA (1 x 10^-6 M to 5 x 10⁻⁵ M) in RPMI-1640 or PBS based solution. Wherever mentioned, cells were pretreated with DEAB (10-30 µM) for 30-60 min at 37°C and then exposed to SDA.
(§1) For [³H]-thymidine incorporation, drug or vehicle treated bone marrow or spleen cells were plated in RPMI-1640, containing 10% fetal bovine serum, 10 µM β-mercaptoethanol, 25 mM HEPES and 2 mM glutamine. Con-A (4 µg/ml and […]) was used as mitogens for bone marrow and spleen cells. […]

Murine bone marrow cells = assay: Con A driven mouse bone marrow cell proliferation ([3H]-thymidine incorporation); type: cell-based
Protocol: Mouse spleen and bone marrow cells were incubated separately with different concentrations of spermine dialdehyde in vitro for 1 hour. Cells were washed extensively and set up in a Con A stimulated proliferation assay. A graph is depicted wherein percentage response is plotted as a function of various concentrations of spermine dialdehyde.
Mice were sacrificed by cervical dislocation and disinfected by dipping in a Dettol solution. Bone marrow cells were obtained from suitable long bones by flushing with a […] needle. Cells were then washed three times with RPMI before use.
Mouse spleen cells were cultured for 3 days in flat bottom microtiter relates at 10⁵ cells per well in the presence of […] of Con A. 3H-thymidine (0.1 microcurie/well) was added for the last 4-6 hours of the culture period. Cells were harvested as described above.
Mouse bone marrow and spleen cells were each incubated for 1 hour with different concentrations of spermine dialdehyde. Cells were then washed 3 times with RPMI and set up in a Con A driven proliferation assay. Results are depicted in Figure 2.
as §1

[1] = system: lethally irradiated AKR mice; assay: Bone marrow transplantation with ex vivo treated graft (GVHD, survival); type: in vivo
Protocol: C57BL spleen and bone marrow cell mixtures were treated with different concentrations of spermine dialdehyde or control preparation and injected i.v. into lethally irradiated AKR mice. A graph is depicted wherein percentage survival is scored as a function of time.
In bone marrow transplantation, bone marrow cells from normal donor mice were transplanted to totally histoincompatible and lethally irradiated recipients. All recipient mice received 9.5 Gy (950 rads) total body irradiation on day 0 and were then housed in microisolator cages thereafter. They were given autoclaved rodent laboratory chow throughout the whole study and also were allowed to feed ad libitum. Recipients also received 1.5 mg/kg of gentamicin subcutaneously for 20 days after irradiation. On the day of irradiation, bone marrow cells mixed in 3:1 ratio with spleen cells were removed from donors and incubated for an hour with different concentrations of spermine dialdehyde for 1 hour. Spleen cells were added to intensify subsequent graft vs. host disease (GVHD). After incubation, cells were washed 3 times and then injected intravenously into irradiated recipients. Signs of GVHD and survival were scored every day thereafter.
Bone marrow and spleen cell mixtures (3:1 ratio) from C57BL mice were incubated with control preparation or various concentrations of spermine dialdehyde for 1 hour Cells were then washed extensively and injected intravenously into lethally irradiated histoincompatible AKR mice. Signs of graft vs. host diseases such as hunched back, diarrhea, alopecia, and physical conditions were recorded daily. […] Thus treatment with lower doses of spermine dialdehyde inactivated T lymphocytes without being toxic to marrow celis and allowed animals to reconstitute with little sign of GVHD.

[2] = system: BFU-E and CFU-GM colonies; assay: Hemopoietic colony formation assay; type: cell-based, murine
Protocol: Hemopoietic colony forming cells were cultured as described in the art by Iscove & Sieber with minor modifications. SDA/DEAB treated or vehicle treated cells were added to murine hemopoietic culture mixture with erythropoietin and conditioned medium (Terry Fox Laboratories, Vancouver, Canada). The mixture was vortexed and 1-2 ml portions (1 x 10⁵ bone marrow cells) were plated in duplicate in 35 mm plastic petri dishes (lux suspension dishes, Flow Laboratories). The culture dishes were incubated in a humidified atmosphere (95% air : 5% CO₂) at 37°C. Colonies were counted on day 8 or 10 for BFU-E, CFU-GM and CFU-mix. Colony types were confirmed with Wright/Giemsa Stain.

For `O=CCCNCCCCNCCC=O` [SDA, NN′-Bis-(3-propionaldehyde)-1-4-diaminobutane], the “effect of DEAB pretreatment on cytotoxicity of SDA” value (L1210/CPA cells; DEAB (20 µM) pretreatment) was “potentiated the cytotoxicitty of SDA”, the IC50 (L1210/CPA cells; Mus musculus, L1210, [³H]-thymidine incorporation, read-out: mean IC₅₀) was 8.3 µM and the “[³H]-thymidine incorporation after DEAB pretreatment” value (Murine bone marrow cells; DEAB (30 µM) pretreatment) was “higher susceptibility at lower concentrations of SDA”. For the same compound, the “[³H]-thymidine incorporation” value (Murine bone marrow cells; treated in PBS based medium, cultured 3 days) was “dose dependent decrease”, the “signs of GVHD” value ([1]; bone marrow treated ex vivo for 1 hour) was “only mild signs of GVHD” and the survival time ([1]; marrow treated ex vivo with lower doses (0.03-0.06), Figure 3) was “significantly prolonged survival time”. The marrow toxicity ([1]; very high dose groups of 0.2mM, ex vivo treatment) was “exhibited marrow toxicity”, the “suppression of BFU-E and CFU-GM colonies” value ([2]; 50 µM) was “almost total suppression” and the “sensitivity of myeloid colony forming cells after DEAB pretreatment” value ([2]; SDA 10-25 µM, DEAB pretreatment) was “further potentiated the sensitivity”.
